What all share (assay type): cell-based
Assay [1] deals with human lung carcinoma A-549. The experiment in a line: in vitro antitumour activity in cell cultures of human lung carcinoma A-549. Particulars: A549, A-549 cell culture. On the procedure:
(§1) The antitumour activities of Mycaperoxide A and Mycaperoxide B have been determined "in vitro" in cell cultures of mouse leukemia P-388, human lung carcinoma A-549 and human colon carcinoma HT-29. The procedure was carried out using the method described by Raymond J. Bergeron et al. Biochem Bioph. Res. Comm. 1984, 121(3), 848-854 and by Alan C Shroeder et al. J. Med. Chem. 1981, 24 1078-1083.

Assay [2] relates to mouse leukemia P-388. The experiment in a line: in vitro antitumour activity in cell cultures of mouse leukemia P-388. The conditions noted are these: P388, P-388 cell culture. On the procedure:
as §1

Assay [3] has as its system VSV (Vesicular stomatitis virus). The experiment in a line: microbe, parasite or virus in culture. Particulars: read-out: IC50 VSV.
For assay [4], the system named is human colon carcinoma HT-29. The assay can be described thus: in vitro antitumour activity in cell cultures of human colon carcinoma HT-29. Particulars: HT-29 cell culture. The method, then:
as §1

SMILES strings stand for the structures. Values after ≈ are worked out from the molar mass of the structure shown.

What is called IC50 is the concentration needed to halve the response being measured. For `CC(C(=O)O)C1CCC(C)(CCC2(C)C(C)CCC3C(C)(C)CCCC32O)OO1` (centres unmarked) [Mycaperoxide A, mycaperoxide A], the IC50 in assay [1] came out at 0.5 µg/mL (≈ 1.22 µM); in assay [2], 0.5 µg/mL (≈ 1.22 µM); in assay [3] it was 2 µg/mL (≈ 4.87 µM); in assay [4], 0.5 µg/mL (≈ 1.22 µM).

As for `CC(C(=O)O)C1CCC(C)(CCC2(O)C(C)CCC3C(C)(C)CCCC32C)OO1` (centres unmarked) [Mycaperoxide B, mycaperoxide B], the IC50 is 1 µg/mL (≈ 2.44 µM) in assay [1], 1 µg/mL (≈ 2.44 µM) in assay [2], 4 µg/mL (≈ 9.74 µM) in assay [3] and 1 µg/mL (≈ 2.44 µM) in assay [4].

The values are drawn from US5449684A (priority 1993, dated 1995).
